In US11427553B2, “Dihydrooxadiazinones” (Bayer Aktiengesellschaft, priority 2017, dated 2022) one finds IC50 data, which are given here for 23 compounds.

In experiment [1] the test system is SK-MEL-3 cells. Briefly: Assay 1 cell proliferation measurement (CTG, 72 h), SK-MEL-3. In kind it is cell-based, human. The settings on record: Homo sapiens, SK-MEL3; Assay 1, 72 h, Cell Titer Glo; read-out: SK-MEL-3 IC50 [nM] (melanoma). Put shortly: (§1)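 Seed cells, incubate overnight at 37 °C; measure baseline viability (CTG, 0 h plate); dose compound in a 10-step 2.5-fold series (max generally 100 nM final, DMSO 0.3%) for 72 h; read CTG luminescence; fit IC50 with 4 parameters.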

Experiment [2] concerns the target human full length PDE3A (Homo sapiens (Human), UniProt Q14432). The experiment in a line: Assay 4 PDE3A enzyme inhibition (3H-cAMP SPA). In kind it is biochemical. The settings on record: Sf9 cell extract. Put shortly: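 In this SPA format, the 60-min room-temperature reaction used 0.025 μCi [8-3H]cAMP and diluted full-length PDE3A from Sf9 cells. Percentage activity was plotted against log compound concentration to derive IC50.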

Experiment [3] concerns the target human full length PDE3B (Homo sapiens (Human), UniProt Q13370). The experiment in a line: Assay 5 PDE3B enzyme inhibition (3H-cAMP SPA). In kind it is biochemical. The settings on record: Sf9 cell extract. Put shortly:
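Sf9 cell extract expressing human full-length PDE3B, diluted for linear kinetics (<70% substrate use), in 50 mM Tris/HCl pH 7.5, 8.3 mM MgCl2, 1.7 mM EDTA. [8-3H]cAMP substrate, 60 min at room temperature; stopped with yttrium SPA beads, scintillation counting. IC50 from sigmoidal activity vs log concentration curves.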

In experiment [4] the test system is HeLa cells. The experiment in a line: Assay 1 cell proliferation measurement (CTG, 72 h), HeLa. In kind it is cell-based, human. The conditions noted are these: Homo sapiens, HeLa; Assay 1, 72 h, Cell Titer Glo; read-out: HeLa IC50 [nM] (Cervical cancer). Put shortly: as §1

Some results are limits rather than exact numbers.

human full length PDE3B, sequence (Q13370 whole entry): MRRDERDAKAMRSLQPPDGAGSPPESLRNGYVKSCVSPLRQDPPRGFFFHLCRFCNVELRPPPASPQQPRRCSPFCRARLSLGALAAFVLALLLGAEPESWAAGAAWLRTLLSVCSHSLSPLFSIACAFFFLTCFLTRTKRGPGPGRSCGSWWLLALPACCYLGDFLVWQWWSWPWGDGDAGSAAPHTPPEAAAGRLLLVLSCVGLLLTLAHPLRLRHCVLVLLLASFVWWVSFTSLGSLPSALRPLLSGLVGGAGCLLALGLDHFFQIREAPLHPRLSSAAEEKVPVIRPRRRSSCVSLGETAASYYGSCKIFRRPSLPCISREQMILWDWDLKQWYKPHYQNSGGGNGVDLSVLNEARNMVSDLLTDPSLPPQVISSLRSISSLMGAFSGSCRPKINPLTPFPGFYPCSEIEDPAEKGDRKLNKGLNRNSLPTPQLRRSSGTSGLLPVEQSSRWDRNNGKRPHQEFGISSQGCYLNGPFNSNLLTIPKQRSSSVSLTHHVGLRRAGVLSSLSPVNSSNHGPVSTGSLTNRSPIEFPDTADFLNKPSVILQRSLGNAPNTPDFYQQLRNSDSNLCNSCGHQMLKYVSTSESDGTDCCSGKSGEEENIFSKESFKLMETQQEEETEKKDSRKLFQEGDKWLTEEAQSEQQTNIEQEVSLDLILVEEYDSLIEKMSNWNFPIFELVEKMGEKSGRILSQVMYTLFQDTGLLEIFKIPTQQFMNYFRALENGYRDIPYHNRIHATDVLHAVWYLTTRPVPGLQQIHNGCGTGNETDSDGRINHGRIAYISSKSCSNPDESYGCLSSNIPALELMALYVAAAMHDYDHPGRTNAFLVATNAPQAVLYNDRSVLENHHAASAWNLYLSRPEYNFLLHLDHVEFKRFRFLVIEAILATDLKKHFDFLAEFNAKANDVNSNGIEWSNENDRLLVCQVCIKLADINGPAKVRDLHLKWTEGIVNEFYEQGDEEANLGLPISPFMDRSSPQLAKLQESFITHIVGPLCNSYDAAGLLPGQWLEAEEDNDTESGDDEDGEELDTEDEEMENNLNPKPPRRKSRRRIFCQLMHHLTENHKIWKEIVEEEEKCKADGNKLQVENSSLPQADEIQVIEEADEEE
human full length PDE3A, sequence (Q14432 whole entry): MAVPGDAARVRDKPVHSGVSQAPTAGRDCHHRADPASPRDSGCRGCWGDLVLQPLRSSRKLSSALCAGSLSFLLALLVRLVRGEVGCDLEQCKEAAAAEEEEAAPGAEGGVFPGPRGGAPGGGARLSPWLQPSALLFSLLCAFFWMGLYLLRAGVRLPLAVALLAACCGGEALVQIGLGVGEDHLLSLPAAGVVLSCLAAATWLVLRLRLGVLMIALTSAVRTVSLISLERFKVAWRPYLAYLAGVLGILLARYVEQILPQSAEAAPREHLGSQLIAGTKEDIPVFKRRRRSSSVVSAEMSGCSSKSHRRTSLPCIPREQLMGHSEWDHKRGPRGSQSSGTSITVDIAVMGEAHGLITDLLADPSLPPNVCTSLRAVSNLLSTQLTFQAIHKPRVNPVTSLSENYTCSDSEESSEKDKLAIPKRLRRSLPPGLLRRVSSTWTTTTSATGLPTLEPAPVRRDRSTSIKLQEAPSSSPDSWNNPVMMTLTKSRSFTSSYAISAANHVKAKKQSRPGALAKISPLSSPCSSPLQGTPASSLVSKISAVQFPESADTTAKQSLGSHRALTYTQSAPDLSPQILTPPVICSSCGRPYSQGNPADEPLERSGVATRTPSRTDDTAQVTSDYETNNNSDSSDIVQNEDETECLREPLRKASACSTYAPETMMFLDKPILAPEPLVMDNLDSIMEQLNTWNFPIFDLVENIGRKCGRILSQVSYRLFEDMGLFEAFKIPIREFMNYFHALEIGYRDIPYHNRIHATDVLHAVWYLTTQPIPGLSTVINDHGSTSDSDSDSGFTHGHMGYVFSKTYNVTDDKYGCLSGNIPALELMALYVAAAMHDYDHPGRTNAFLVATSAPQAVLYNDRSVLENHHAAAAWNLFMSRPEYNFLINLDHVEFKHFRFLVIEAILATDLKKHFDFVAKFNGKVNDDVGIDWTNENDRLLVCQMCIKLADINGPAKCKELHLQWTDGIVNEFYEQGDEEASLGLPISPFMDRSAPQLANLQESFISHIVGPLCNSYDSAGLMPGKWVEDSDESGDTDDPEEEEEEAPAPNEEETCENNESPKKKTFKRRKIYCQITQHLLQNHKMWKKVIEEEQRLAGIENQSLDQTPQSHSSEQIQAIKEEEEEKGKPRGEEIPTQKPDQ

As to `O=C1NN=C(c2ccc(C3=CCOC3)c(C(F)(F)F)c2)CO1` [Example 149, 5-[4-(2,5-Dihydrofuran-3-yl)-3-(trifluoromethyl)phenyl]-3,6-dihydro-2H-1,3,4-oxadiazin-2-one], the 50% inhibitory concentration (IC50) in experiment [1] is 4 nM; in experiment [2], 163 nM; in experiment [3], 132 nM; in experiment [4] it was 2 nM.
For `O=C1NN=C(c2ccc(C3=CCCC3)c(C(F)(F)F)c2)CO1` [Example 150, 5-[4-(Cyclopent-1-en-1-yl)-3-(trifluoromethyl)phenyl]-3,6-dihydro-2H-1,3,4-oxadiazin-2-one], the IC50 worked out at 5 nM in experiment [1], 240 nM in experiment [2], 250 nM in experiment [3] and 2 nM in experiment [4].
For `CCn1cnc(-c2ccc(C3=NNC(=O)OC3)cc2C(F)(F)F)c1` [Example 151, 5-[4-(1-Ethyl-1H-imidazol-4-yl)-3-(trifluoromethyl)phenyl]-3,6-dihydro-2H-1,3,4-oxadiazin-2-one], the IC50 in experiment [1] worked out at 5 nM; in experiment [2], 69 nM; in experiment [3], 159 nM; in experiment [4], 5 nM.
Take `Cc1cc(-c2ccc(C3=NNC(=O)OC3)cc2C(F)(F)F)sc1C#N` [Example 152, 3-Methyl-5-[4-(2-oxo-3,6-dihydro-2H-1,3,4-oxadiazin-5-yl)-2-(trifluoromethyl)phenyl]thiophene-2-carbonitrile]: the half-maximal inhibitory concentration (IC50) is 56 nM in experiment [1], 63 nM in experiment [2], 76 nM in experiment [3] and 21 nM in experiment [4].
With `CC(C)n1cc(-c2ccc(C3=NNC(=O)OC3)cc2C(F)(F)F)cn1` [Example 153, 5-{4-[1-(Propan-2-yl)-1H-pyrazol-4-yl]-3-(trifluoromethyl)phenyl}-3,6-dihydro-2H-1,3,4-oxadiazin-2-one], the IC50 stood at 7 nM in experiment [1], 15 nM in experiment [2], 26 nM in experiment [3] and 4 nM in experiment [4].
As for `O=C1NN=C(c2ccc(-c3ccccc3F)c(C(F)(F)F)c2)CO1` [Example 155, 5-[2′-Fluoro-2-(trifluoromethyl)[1,1′-biphenyl]-4-yl]-3,6-dihydro-2H-1,3,4-oxadiazin-2-one], the 50% inhibitory concentration (IC50) in experiment [1] turned out to be 17 nM; in experiment [2], 92 nM; in experiment [3], 110 nM; in experiment [4], 9 nM.
On to `O=C1NN=C(c2ccc(-c3ccc(C(F)(F)F)s3)c(C(F)(F)F)c2)CO1` [Example 156, 5-{3-(Trifluoromethyl)-4-[5-(trifluoromethyl)thiophen-2-yl]phenyl}-3,6-dihydro-2H-1,3,4-oxadiazin-2-one], for which the IC50 in experiment [1] was 68 nM; in experiment [2], 440 nM; in experiment [3], 650 nM; in experiment [4], 55 nM.
On to `Cc1ccc(-c2ccc(C3=NNC(=O)OC3)cc2C(F)(F)F)nc1` [Example 157, 5-[4-(5-Methylpyridin-2-yl)-3-(trifluoromethyl)phenyl]-3,6-dihydro-2H-1,3,4-oxadiazin-2-one], for which the IC50 in experiment [1] is 71 nM; in experiment [2] it was more than 1000 nM; in experiment [3] it was more than 1000 nM; in experiment [4], 44 nM.
On to `O=C1NN=C(c2ccc(-c3ccc(F)cn3)c(C(F)(F)F)c2)CO1` [Example 158, 5-[4-(5-Fluoropyridin-2-yl)-3-(trifluoromethyl)phenyl]-3,6-dihydro-2H-1,3,4-oxadiazin-2-one], for which the IC50 in experiment [1] was found to be 40 nM; in experiment [2], 500 nM; in experiment [3], 720 nM; in experiment [4], 22 nM.
On to `O=C1NN=C(c2ccc(-c3ccc(Cl)cn3)c(C(F)(F)F)c2)CO1` [Example 159, 5-[4-(5-Chloropyridin-2-yl)-3-(trifluoromethyl)phenyl]-3,6-dihydro-2H-1,3,4-oxadiazin-2-one], for which the IC50 in experiment [1] is 22 nM; in experiment [2], more than 1000 nM; in experiment [3] it was more than 1000 nM; in experiment [4], 11 nM.
`O=C1NN=C(c2ccc(-c3ccccn3)c(C(F)(F)F)c2)CO1` [Example 160, 5-[4-(Pyridin-2-yl)-3-(trifluoromethyl)phenyl]-3,6-dihydro-2H-1,3,4-oxadiazin-2-one]: the IC50 was 47 nM in experiment [1], more than 1000 nM in experiment [2], more than 1000 nM in experiment [3] and 27 nM in experiment [4].
Turning to `Cc1cc(C#N)ccc1-c1ccc(C2=NNC(=O)OC2)cc1F` [Example 163, 2′-Fluoro-2-methyl-4′-(2-oxo-3,6-dihydro-2H-1,3,4-oxadiazin-5-yl)[1,1′-biphenyl]-4-carbonitrile], the IC50 in experiment [1] was determined as 14 nM; in experiment [2], 35 nM; in experiment [3], 51 nM; in experiment [4], 8 nM.
Regarding `CC(C)=Cc1ccc(C2=NNC(=O)OC2)cc1OC(F)(F)F` [Example 164, 5-[4-(2-Methylprop-1-en-1-yl)-3-(trifluoromethoxy)phenyl]-3,6-dihydro-2H-1,3,4-oxadiazin-2-one], the IC50 in experiment [1] was 8 nM; in experiment [2], 300 nM; in experiment [3], 200 nM; in experiment [4], 6 nM.
The matching figures for `Cc1ccc(-c2ccc(C3=NNC(=O)O[C@H]3C)cc2C(F)(F)F)cn1` [Example 167, (6S)-6-Methyl-5-[4-(6-methylpyridin-3-yl)-3-(trifluoromethyl)phenyl]-3,6-dihydro-2H-1,3,4-oxadiazin-2-one]: 6 nM, 34 nM, 66 nM and 4 nM.
For the compound `Cc1ccc(-c2ccc(C3=NNC(=O)O[C@H]3C)cc2C(F)(F)F)c(F)c1` [Example 168, (6S)-5-[2′-Fluoro-4′-methyl-2-(trifluoromethyl)[1,1′-biphenyl]-4-yl]-6-methyl-3,6-dihydro-2H-1,3,4-oxadiazin-2-one], the IC50 in experiment [1] worked out at 25 nM; in experiment [2] it was 170 nM; in experiment [3], 220 nM; in experiment [4] it was 14 nM.
Consider `C[C@@H]1OC(=O)NN=C1c1ccc(-c2cc(F)c(F)cc2F)c(C(F)(F)F)c1` [Example 169, (6S)-6-Methyl-5-[2′,4′,5′-trifluoro-2-(trifluoromethyl)[1,1′-biphenyl]-4-yl]-3,6-dihydro-2H-1,3,4-oxadiazin-2-one], for which the concentration for half-maximal inhibition (IC50) is 32 nM in experiment [1], 180 nM in experiment [2], 240 nM in experiment [3] and 20 nM in experiment [4].
Regarding `C[C@@H]1OC(=O)NN=C1c1ccc(-c2ccc(F)c(F)c2F)c(C(F)(F)F)c1` [Example 170, (6S)-6-Methyl-5-[2′,3′,4′-trifluoro-2-(trifluoromethyl)[1,1′-biphenyl]-4-yl]-3,6-dihydro-2H-1,3,4-oxadiazin-2-one], the half-inhibitory concentration (IC50) in experiment [1] amounted to 40 nM; in experiment [2], 190 nM; in experiment [3], 180 nM; in experiment [4], 27 nM.
With `C[C@@H]1OC(=O)NN=C1c1ccc(-c2cc(F)ccc2F)c(C(F)(F)F)c1` [Example 171, (6S)-5-[2′,5′-Difluoro-2-(trifluoromethyl)[1,1′-biphenyl]-4-yl]-6-methyl-3,6-dihydro-2H-1,3,4-oxadiazin-2-one], the IC50 in experiment [1] amounted to 31 nM; in experiment [2], 150 nM; in experiment [3], 210 nM; in experiment [4] it was 18 nM.
In the case of `C[C@@H]1OC(=O)NN=C1c1ccc(-c2ccccc2C#N)c(C(F)(F)F)c1` [Example 172, 4′-[(6S)-6-Methyl-2-oxo-3,6-dihydro-2H-1,3,4-oxadiazin-5-yl]-2′-(trifluoromethyl)[1,1′-biphenyl]-2-carbonitrile], the IC50 in experiment [1] is 48 nM; in experiment [2], 290 nM; in experiment [3], 520 nM; in experiment [4], 37 nM.
Consider `C[C@@H]1OC(=O)NN=C1c1ccc(-c2ccc3[nH]ccc3c2)c(C(F)(F)F)c1` [Example 173, (6S)-5-[4-(1H-Indol-5-yl)-3-(trifluoromethyl)phenyl]-6-methyl-3,6-dihydro-2H-1,3,4-oxadiazin-2-one], for which the IC50 is 27 nM in experiment [1], 58 nM in experiment [2], 58 nM in experiment [3] and 15 nM in experiment [4].
Turning to `C[C@@H]1OC(=O)NN=C1c1ccc(-c2cccc(O)c2)c(C(F)(F)F)c1` [Example 175, (6S)-5-[3′-Hydroxy-2-(trifluoromethyl)[1,1′-biphenyl]-4-yl]-6-methyl-3,6-dihydro-2H-1,3,4-oxadiazin-2-one], the IC50 in experiment [1] was 3 nM; in experiment [2], 26 nM; in experiment [3], 24 nM; in experiment [4], 6 nM.
`C[C@@H]1OC(=O)NN=C1c1ccc(-c2cccc(N)c2)c(C(F)(F)F)c1` [Example 176, (6S)-5-[3′-Amino-2-(trifluoromethyl)[1,1′-biphenyl]-4-yl]-6-methyl-3,6-dihydro-2H-1,3,4-oxadiazin-2-one]: the half-maximal inhibitory concentration (IC50) in experiment [1] is 4 nM; in experiment [2], 37 nM; in experiment [3] it was 35 nM; in experiment [4], 2 nM.
Consider `C[C@@H]1OC(=O)NN=C1c1ccc(-c2ccc(F)cc2F)c(C(F)(F)F)c1` [Example 177, (6S)-5-[2′,4′-Difluoro-2-(trifluoromethyl)[1,1′-biphenyl]-4-yl]-6-methyl-3,6-dihydro-2H-1,3,4-oxadiazin-2-one], for which the 50% inhibitory concentration (IC50) turned out to be 17 nM in experiment [1], 160 nM in experiment [2], 130 nM in experiment [3] and 12 nM in experiment [4].
